In patent US4756710A, “pH-Mediated drug delivery system” (Merck & Co., Inc., priority 1986, dated 1988):
≈ marks a conversion by molar mass, not a printed value. Where a name gives a salt, the structure may show the parent alone. Read-outs that look alike come from different tables or passages of the source. Each block holds one molecule with its values, some of them ahead of it.

Columns and labels:
[1] = from equation (1); 30 percent ethanol/water; polyurethane membrane 0.0038 cm
[2] = in water at 25° C.; reported; cited from earlier work
[3] = type: physicochemical; conditions: not told
Procedure: Several pH controlled reservoir systems were prepared in a similar manner employing non-aqueous or aqueous glycol vehicles and different buffering agents. For this example, sorbitol USP and 70 percent aqueous propylene glycol were employed. The pH was adjusted with either Na2 HPO4 or Na2 CO3. pH measurements were made on a pH meter with a standard glass electrode and the flux determined in a diffusion cell employing a mineral oil soaked Celgard membrane to separate the buffered reservoir from the receptor phase.

[4] = Solubility of timolol maleate in pH controlled glycol reservoir vehicles; type: physicochemical
[5] = Solubility in mineral oil; type: physicochemical
[6] = Concentration of timolol base in aqueous buffer solutions calculated with the Henderson-Hasselbalch equation; type: physicochemical; conditions: pH 9.0; 15 mg/ml timolol maleate in aqueous buffer
Excerpt: where T is the time lag. Thus, after determining T, D may be calculated. By experimentally determining flux, and substituting in equation (1), K may be obtained. Having thus determined K and D, the desired flux may be achieved by making appropriate modifications of the pH, thereby the concentration, and/or the thickness of the membrane. The appropriate modifications in pH may be arrived at by preparing a series of buffer solutions containing a known quantity of the salt form of drug at various pH values and substituting in the Henderson-Hasselbalch equation, [formula] C, the concentration of the unionized form, may be calculated.

[7] = Excerpt: The following operation illustrates with timolol the relationship among pH, the concentration C, of the timolol base in solution in the reservoir, and the flux calculated from the data as well as the observed flux obtained by placing the compositions behind the selected membrane in a diffusion cell and measuring the rate of release into an isotonic phosphate buffer of pH 7.4.
As a first step in determining the relationship between pH, concentration of timolol, its pK and the pH of the reservoir, an aqueous solution of 7.0 mg/ml of timolol was placed in a diffusion measuring cell fitted with a 1.5 mil (0.0038 cm) thick silicone membrane and the transport of timolol from the reservoir of the test cell to an isotonic pH 7.4 receptor phase was measured over a period of about eight hours by sampling the solution in the receptor phase, assaying this solution for drug by direct ultraviolet assay method and calculating the drug concentration over time, thereafter plotting the drug diffused per square centimeter versus time and calculating the regression line.
From the calculated concentration of the timolol base, the previously determined values for D and K and the known thickness of the membrane, the steady state flux was calculated (equation (1)). Thereafter, the steady state flux was determined experimentally by measuring the transport of timolol at each pH from the buffer system into an isotonic receptor phase through the silicone membrane.

- product KD [1]: 9.38×10^-4 cm^2 /hr
SMILES: CC1=C(CC(=O)O)c2cc(F)ccc2/C1=C\c1ccc([S+](C)[O-])cc1 (centres unmarked) [sulindac]
- pKa [2]: 4.7

SMILES: CC(C)(C)NC[C@H](O)COc1nsnc1N1CCOCC1 [timolol maleate]
- Jobs (flux) ([3]; pH 6.9): 6.7 mcg/cm^2 /hr
- Jobs (flux) ([3]; pH 7.6): 7.4 mcg/cm^2 /hr
- Jobs (flux) ([3]; pH 9.6): 2.8 mcg/cm^2 /hr
- solubility ([4]; 70% propylene glycol + na2co3, organic solvent or mixture, 70% Propylene glycol +Na2 CO3, apparent pH 7.6): 124 mg/mL
- solubility ([4]; sorbitol usp + na2co3, Sorbitol USP +Na2 CO3, apparent pH 9.6): 0.7 mg/mL
- solubility ([4]; sorbitol usp + na2hpo4, Sorbitol USP +Na2 HPO4, apparent pH 6.9): 17.2 mg/mL
- solubility in mineral oil [5]: substantially insoluble

SMILES: CC(C)(C)NC[C@H](O)COc1nsnc1N1CCOCC1 [timolol]
- Cs Timolol Base [6]: 4210 µg/mL
- partition coefficient between drug reservoir and membrane, K [7]: 2.05
- time lag, T ([7]; aqueous solution of 7.0 mg/ml timolol, 1.5 mil silicone membrane, plot extrapolated to time axis): 0.0096 h
- drug diffusion coefficient in the membrane, D ([7]; silicone membrane, from equations (1) and (2)): 2.5×10^-4 cm^2 /hr
- solubility ([5]; organic solvent or mixture, 32° C.): ~7 mg/mL (≈ 22.1 mM)
